Results: ChEMBL document CHEMBL4396870, “Pharmacological Chaperones for the Treatment of α-Mannosidosis” (J Med Chem, 2019)
Numbering of substitutions follows the chain as printed.

Key:
[1] = tested on: T1, Lysosomal alpha-mannosidase (Homo sapiens), O00754 [C55F]; test: Chaperone activity at human Lysosomal alpha-mannosidase C55F mutant transfected in human […] knockout HAP1 cells assessed as enzyme activity enhancement at 0.2 uM incubated for 96 hrs relative to control
T1 sequence (whole entry): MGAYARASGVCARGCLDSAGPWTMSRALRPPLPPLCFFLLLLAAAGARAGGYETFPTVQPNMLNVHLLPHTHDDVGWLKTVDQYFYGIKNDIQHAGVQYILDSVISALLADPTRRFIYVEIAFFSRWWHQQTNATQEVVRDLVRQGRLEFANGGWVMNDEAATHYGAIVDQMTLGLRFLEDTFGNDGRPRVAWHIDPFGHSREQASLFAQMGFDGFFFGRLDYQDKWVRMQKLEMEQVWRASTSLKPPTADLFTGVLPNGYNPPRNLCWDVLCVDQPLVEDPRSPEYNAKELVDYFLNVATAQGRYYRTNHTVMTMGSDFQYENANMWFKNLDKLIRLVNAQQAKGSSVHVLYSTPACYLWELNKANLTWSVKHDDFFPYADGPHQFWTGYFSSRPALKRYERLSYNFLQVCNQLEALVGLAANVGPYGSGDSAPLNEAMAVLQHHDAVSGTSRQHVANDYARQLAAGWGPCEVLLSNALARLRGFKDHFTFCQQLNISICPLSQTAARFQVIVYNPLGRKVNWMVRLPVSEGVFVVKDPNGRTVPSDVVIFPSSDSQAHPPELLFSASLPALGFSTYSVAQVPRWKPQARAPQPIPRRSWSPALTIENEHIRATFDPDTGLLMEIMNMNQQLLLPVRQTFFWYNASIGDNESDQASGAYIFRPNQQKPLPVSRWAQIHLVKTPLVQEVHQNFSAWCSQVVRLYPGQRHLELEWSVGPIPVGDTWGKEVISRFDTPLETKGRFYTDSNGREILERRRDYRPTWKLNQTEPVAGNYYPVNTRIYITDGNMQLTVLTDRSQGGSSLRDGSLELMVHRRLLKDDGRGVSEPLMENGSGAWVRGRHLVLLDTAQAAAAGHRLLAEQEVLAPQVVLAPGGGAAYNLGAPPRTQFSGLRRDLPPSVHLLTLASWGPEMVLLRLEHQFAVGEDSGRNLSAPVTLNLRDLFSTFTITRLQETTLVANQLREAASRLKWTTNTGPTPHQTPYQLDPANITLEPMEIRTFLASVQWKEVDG

[2] = tested on: T2, Lysosomal alpha-mannosidase (Homo sapiens), O00754 [H72L]; test: Chaperone activity at human Lysosomal alpha-mannosidase H72L mutant transfected in human […] knockout HAP1 cells assessed as enzyme activity enhancement at 0.2 uM incubated for 96 hrs relative to control
T2 sequence (whole entry): T1 sequence (whole entry) with F55C, H72L

Activity [1] [%] | Activity [2] [%] | SMILES
23 | 48 | COC[C@H]1O[C@@H]2O[C@H]3[C@H](OC)[C@@H](OC)[C@@H](O[C@H]4[C@H](OC)[C@@H](OC)[C@@H](O[C@H]5[C@H](OC)[C@@H](OC)[C@@H](O[C@H]6[C@H](OC)[C@@H](OC)[C@@H](O[C@H]7[C@H](OC)[C@@H](OC)[C@@H](O[C@H]8[C@H](OC)[C@@H](OC)[C@@H](O[C@H]1[C@H](OC)[C@H]2OC)O[C@@H]8COC)O[C@@H]7COC)O[C@@H]6COC)O[C@@H]5COCc1cn(CCCCCCN[C@@H]2[C@@H](O)[C@@H](O)[C@H](O)[C@H]5COC(=O)N52)nn1)O[C@@H]4COC)O[C@@H]3COC
13 | 0 | CC(C)(C)OC(=O)NCCCCCCCCCN[C@@H]1[C@@H](O)[C@@H](O)[C@H](O)[C@H]2COC(=O)N21
